According to patent EP0908457B1, “3-(1,2-benzisothiazol- and isoxazol-5-Y1)-2,4(1H,3H)-pyrimidinedione or thione and 3-(1,2-benzisothiazol- and isoxazol-5-y1)-4(3H)-pyrimidinone or thione herbicidal agents” (BASF AKTIENGESELLSCHAFT, priority 1997, dated 1999):

Tests used:
Sagittaria pygmaea, L. = assay: Preemergence weed control under flooded paddy conditions, SAGPY (Arrowhead (Pygmaea)); assay type: in vivo; details: flooded paddy; for SAGPY: preemergence weeds, herbicidal effect rating 0-9, three to four weeks after treatment; as to herbicidal effect rating, SAGPY: meaning of each grade not given here
Cyperus iria = assay: Preemergence weed control under flooded paddy conditions, CYPIR (Rice Flatsedge); assay type: in vivo; details: flooded paddy; for CYPIR herbicidal rating / herbicidal effect rating, CYPIR: preemergence, rated three to four weeks after treatment; for CYPIR: preemergence weeds, herbicidal effect rating 0-9, three to four weeks after treatment; as to herbicidal effect rating, CYPIR: meaning of each grade not given here
[1] = tested on: Oryza sativa, (L.) Tebonnet; assay: Rice tolerance to post-transplant applications under flooded paddy conditions (Example 187), ORYSAT (Rice, Tebonnet); details: for ORYSAT herbicidal rating (rice tolerance) / herbicidal effect rating, ORYSAT (rice tolerance): rated three to four weeks after treatment; for ORYSAT: herbicidal effect rating 0-9, three to four weeks after treatment
[2] = tested on: Cyperus serotinus, Rottb.; assay: Preemergence weed control under flooded paddy conditions, CYPSE (Flatsedge); assay type: in vivo; details: for CYPSE: preemergence weeds, herbicidal effect rating 0-9, three to four weeks after treatment; as to herbicidal effect rating, CYPSE: meaning of each grade not given here
[3] = tested on: Monochoria vaginalis, Presl.; assay: Preemergence weed control under flooded paddy conditions, MOOVA (Monochoria); assay type: in vivo; details: flooded paddy; for MOOVA herbicidal rating / herbicidal effect rating, MOOVA: preemergence, rated three to four weeks after treatment; for MOOVA: preemergence weeds, herbicidal effect rating 0-9, three to four weeks after treatment; as to herbicidal effect rating, MOOVA: meaning of each grade not given here
[4] = tested on: Echinochloa oryzoides (Ard.) Fritsch.; assay: Preemergence weed control under flooded paddy conditions, ECHORC (Watergrass (Calif.)); assay type: in vivo; details: flooded paddy; for ECHORC herbicidal rating / herbicidal effect rating, ECHORC: preemergence, rated three to four weeks after treatment; for ECHORC: preemergence weeds, herbicidal effect rating 0-9, three to four weeks after treatment; as to herbicidal effect rating, ECHORC: meaning of each grade not given here
[5] = 0.0320 kg/ha, preemergence, rated three to four weeks after treatment
[6] = 0.0313 kg/ha, preemergence, rated three to four weeks after treatment
[7] = 0.0625 kg/ha, preemergence, rated three to four weeks after treatment
[8] = 0.1250 kg/ha, preemergence, rated three to four weeks after treatment
[9] = 0.2500 kg/ha, preemergence, rated three to four weeks after treatment

CSCOCc1nsc2ccc(-n3c(=O)cc(C(F)(F)F)n(C)c3=O)cc12 [Example 484, 2,4(1H,3H)-Pyrimidinedione, 1-methyl-3-{3-{[(methylthio)methoxy]methyl}-1,2-benzisothiazol-5-yl}-6-(trifluoromethyl)-] gave an SAGPY herbicidal rating (Sagittaria pygmaea, L.; [5]) of 5.0, a CYPIR herbicidal rating (Cyperus iria; 0.0320 kg/ha) of 4.0 and a CYPIR herbicidal rating (Cyperus iria; 0.0620 kg/ha) of 4.0. The CYPIR herbicidal rating (Cyperus iria; 0.1250 kg/ha) was 6.0, the CYPIR herbicidal rating (Cyperus iria; 0.2500 kg/ha) was 9.0 and the “ORYSAT herbicidal rating (rice tolerance)” value (from here on “ORYSAT herbicidal rating”) ([1]; 0.0320 kg/ha) was 5.0. For the same compound, the “ORYSAT herbicidal rating” value ([1]; 0.0620 kg/ha) was 5.0, the “ORYSAT herbicidal rating” value ([1]; 0.1250 kg/ha) was 6.0 and the “ORYSAT herbicidal rating” value ([1]; 0.2500 kg/ha) was 6.0. For the same compound, the CYPSE herbicidal rating [2, 5] was 0.0, the MOOVA herbicidal rating ([3]; 0.0320 kg/ha) was 7.0 and the MOOVA herbicidal rating ([3]; 0.0620 kg/ha) was 9.0. For the same compound, the MOOVA herbicidal rating ([3]; 0.1250 kg/ha) was 9.0, the MOOVA herbicidal rating ([3]; 0.2500 kg/ha) was 9.0 and the ECHORC herbicidal rating ([4]; 0.0320 kg/ha) was 5.0. The ECHORC herbicidal rating ([4]; 0.0620 kg/ha) was 4.0, the ECHORC herbicidal rating ([4]; 0.1250 kg/ha) was 7.0 and the ECHORC herbicidal rating ([4]; 0.2500 kg/ha) was 9.0.

CCSC(=O)c1nsc2ccc(-n3c(=O)cc(C(F)(F)F)n(C)c3=O)cc12 [Example 422, 1,2-Benzisothiazole-3-thiocarboxylic acid, 5-[3,6-dihydro-3-methyl-2,6-dioxo-4-(trifluoromethyl)-1(2H)-pyrimidinyl]-, S-ethyl ester] gave an SAGPY (Sagittaria pygmaea, L.; 0.0320 kg/ha) of 0.0, an SAGPY (Sagittaria pygmaea, L.; 0.0620 kg/ha) of 0.0 and an SAGPY (Sagittaria pygmaea, L.; 0.1250 kg/ha) of 3.0. The SAGPY (Sagittaria pygmaea, L.; 0.2500 kg/ha) was 6.0, the CYPIR (Cyperus iria; 0.0320 kg/ha) was 5.0 and the CYPIR (Cyperus iria; 0.0620 kg/ha) was 6.0. The CYPIR (Cyperus iria; 0.1250 kg/ha) was 9.0, the CYPIR (Cyperus iria; 0.2500 kg/ha) was 9.0 and the ORYSAT ([1]; 0.0320 kg/ha) was 0.0. It also gave an ORYSAT ([1]; 0.0620 kg/ha) of 0.0, an ORYSAT ([1]; 0.1250 kg/ha) of 2.0 and an ORYSAT ([1]; 0.2500 kg/ha) of 3.0. The CYPSE ([2]; 0.0320 kg/ha) was 0.0, the CYPSE ([2]; 0.0620 kg/ha) was 5.0 and the MOOVA ([3]; 0.0320 kg/ha) was 7.0. It also gave an MOOVA ([3]; 0.0620 kg/ha) of 9.0, an MOOVA ([3]; 0.1250 kg/ha) of 9.0 and an MOOVA ([3]; 0.2500 kg/ha) of 9.0. The ECHORC ([4]; 0.0320 kg/ha) was 5.0, the ECHORC ([4]; 0.0620 kg/ha) was 6.0 and the ECHORC ([4]; 0.1250 kg/ha) was 9.0. The ECHORC ([4]; 0.2500 kg/ha) was 9.0.

Compound CCOC(=O)c1nsc2cc(F)c(-n3c(=O)cc(C(F)(F)F)n(C)c3=O)cc12 [Example 423, 1,2-Benzisothiazole-3-carboxylic acid, 5-[3,6-dihydro-3-methyl-2,6-dioxo-4-(trifluoromethyl)-1(2H)-pyrimidinyl]-6-fluoro-, ethyl ester] has an SAGPY (Sagittaria pygmaea, L.; 0.0320 kg/ha) of 9.0, an SAGPY (Sagittaria pygmaea, L.; 0.0620 kg/ha) of 9.0 and an SAGPY (Sagittaria pygmaea, L.; 0.1250 kg/ha) of 9.0. For the same compound, the SAGPY (Sagittaria pygmaea, L.; 0.2500 kg/ha) was 9.0, the CYPIR (Cyperus iria; 0.0320 kg/ha) was 6.0 and the CYPIR (Cyperus iria; 0.0620 kg/ha) was 7.0. The CYPIR (Cyperus iria; 0.1250 kg/ha) was 9.0, the CYPIR (Cyperus iria; 0.2500 kg/ha) was 9.0 and the ORYSAT ([1]; 0.0320 kg/ha) was 5.0. It also gave an ORYSAT ([1]; 0.0620 kg/ha) of 6.0, an ORYSAT ([1]; 0.1250 kg/ha) of 7.0 and an ORYSAT ([1]; 0.2500 kg/ha) of 7.0. It also gave a CYPSE ([2]; 0.0320 kg/ha) of 9.0, a CYPSE ([2]; 0.0620 kg/ha) of 9.0 and a CYPSE ([2]; 0.1250 kg/ha) of 9.0. The CYPSE ([2]; 0.2500 kg/ha) was 9.0, the MOOVA ([3]; 0.0320 kg/ha) was 9.0 and the MOOVA ([3]; 0.0620 kg/ha) was 9.0. For the same compound, the MOOVA ([3]; 0.1250 kg/ha) was 9.0, the MOOVA ([3]; 0.2500 kg/ha) was 9.0 and the ECHORC ([4]; 0.0320 kg/ha) was 6.0. The ECHORC ([4]; 0.0620 kg/ha) was 9.0, the ECHORC ([4]; 0.1250 kg/ha) was 9.0 and the ECHORC ([4]; 0.2500 kg/ha) was 9.0.

For COCc1nsc2ccc(-n3c(=O)cc(C(F)(F)F)n(C)c3=O)cc12 [Example 31, 3-[3-(Methoxymethyl)-1,2-benzisothiazol-5-yl]-1-methyl-6-(trifluoromethyl)-2,4(1H,3H)-pyrimidinedione], the “herbicidal effect rating, SAGPY” value (Sagittaria pygmaea, L.; [6]) was 4.0, the “herbicidal effect rating, SAGPY” value (Sagittaria pygmaea, L.; [7]) was 7.0 and the “herbicidal effect rating, SAGPY” value (Sagittaria pygmaea, L.; [8]) was 9.0. For the same compound, the “herbicidal effect rating, SAGPY” value (Sagittaria pygmaea, L.; [9]) was 9.0, the “herbicidal effect rating, CYPIR” value (Cyperus iria; 0.0313 kg/ha) was 9.0 and the “herbicidal effect rating, CYPIR” value (Cyperus iria; 0.0625 kg/ha) was 9.0. For the same compound, the “herbicidal effect rating, CYPIR” value (Cyperus iria; 0.1250 kg/ha) was 9.0, the “herbicidal effect rating, CYPIR” value (Cyperus iria; 0.2500 kg/ha) was 9.0 and the “herbicidal effect rating, ORYSAT (rice tolerance)” value (“herbicidal effect rating, ORYSAT” for short) ([1]; 0.0313 kg/ha) was 7.5. The “herbicidal effect rating, ORYSAT” value ([1]; 0.0625 kg/ha) was 8.0, the “herbicidal effect rating, ORYSAT” value ([1]; 0.1250 kg/ha) was 7.5 and the “herbicidal effect rating, ORYSAT” value ([1]; 0.2500 kg/ha) was 8.0. For the same compound, the “herbicidal effect rating, CYPSE” value [2, 6] was 7.0, the “herbicidal effect rating, CYPSE” value [2, 7] was 7.0 and the “herbicidal effect rating, CYPSE” value [2, 8] was 8.0. For the same compound, the “herbicidal effect rating, CYPSE” value [2, 9] was 9.0, the “herbicidal effect rating, MOOVA” value ([3]; 0.0313 kg/ha) was 9.0 and the “herbicidal effect rating, MOOVA” value ([3]; 0.0625 kg/ha) was 9.0. For the same compound, the “herbicidal effect rating, MOOVA” value ([3]; 0.1250 kg/ha) was 9.0, the “herbicidal effect rating, MOOVA” value ([3]; 0.2500 kg/ha) was 9.0 and the “herbicidal effect rating, ECHORC” value ([4]; 0.0313 kg/ha) was 7.0. The “herbicidal effect rating, ECHORC” value ([4]; 0.0625 kg/ha) was 8.5, the “herbicidal effect rating, ECHORC” value ([4]; 0.1250 kg/ha) was 9.0 and the “herbicidal effect rating, ECHORC” value ([4]; 0.2500 kg/ha) was 9.0.
